# According to paper PMC2980575 (Analytical biochemistry, 2010):
# Assays:
# HDAC8 [1] = target: T1, HDAC8 (Homo sapiens, UniProt Q9BY41); experiment: Fluorescence displacement method with c-SAHA as probe, Dynafit analysis
# T1 sequence (Q9BY41 1-377): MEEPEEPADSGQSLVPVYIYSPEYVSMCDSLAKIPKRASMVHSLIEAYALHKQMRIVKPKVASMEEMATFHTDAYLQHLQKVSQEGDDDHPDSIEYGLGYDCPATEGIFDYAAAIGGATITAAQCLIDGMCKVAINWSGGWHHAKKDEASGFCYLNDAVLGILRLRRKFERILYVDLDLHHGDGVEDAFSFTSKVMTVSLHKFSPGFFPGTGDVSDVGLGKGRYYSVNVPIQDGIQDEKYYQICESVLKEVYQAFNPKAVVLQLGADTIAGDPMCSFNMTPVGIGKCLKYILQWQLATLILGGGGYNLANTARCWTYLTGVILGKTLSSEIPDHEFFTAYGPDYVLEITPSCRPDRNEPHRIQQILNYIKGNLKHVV
# HDAC8 [2] = target: T1, HDAC8; experiment: Stopped-flow transient kinetics, c-SAHA as competitive ligand; assay type: binding; conditions: pH 7.5, read-out: koff (dissociation off-rate)
# HDAC8 [3] = target: T1, HDAC8; experiment: Trypsin-coupled steady-state kinetic assay with Fluor de Lys substrate; assay type: biochemical
# HDAC8 [4] = target: T1, HDAC8; experiment: Direct fluorescence titration of c-SAHA with HDAC8; assay type: binding
Kd (HDAC8 [4]),"Ki of c-SAHA lower than that of parent compound SAHA (HDAC8 [3]; steady-state kinetic data, c-SAHA versus SAHA)",SMILES,Kd (HDAC8 [1]),koff (HDAC8 [2]),Ki (HDAC8 [3])
–,–,"CN(C)c1ccc(C(=O)NCCCCCCC(=O)NO)cc1 [M344, 4-Dimethylamino-N-(6-hydroxycarbamoylhexyl)-benzamide]",320 ± 90 nM,1.05 ± 0.12 s⁻¹,180 ± 20 nM
160 ± 20 nM,about 5 fold,"Cc1cc(=O)oc2cc(NC(=O)CCCCCCC(=O)NO)ccc12 [c-SAHA, N^1-hydroxy-N^8-(4-methyl-2-oxo-2H-chromen-7-yl)octanediamide]",–,–,160 nM
